The values that follow come from ChEMBL document CHEMBL1134144, “Macrocyclization in the design of a conformationally constrained Grb2 SH2 domain inhibitor” (Bioorg Med Chem Lett, 2001).

Each structure is given as a SMILES string.

The target in the assay is Growth factor receptor-bound protein 2 (Homo sapiens, UniProt P62993). In words: Inhibition of Growth factor receptor bound protein 2 SH2 domain binding in ELISA.
Sequence of Growth factor receptor-bound protein 2 (P62993 whole entry, the tested form may be a part): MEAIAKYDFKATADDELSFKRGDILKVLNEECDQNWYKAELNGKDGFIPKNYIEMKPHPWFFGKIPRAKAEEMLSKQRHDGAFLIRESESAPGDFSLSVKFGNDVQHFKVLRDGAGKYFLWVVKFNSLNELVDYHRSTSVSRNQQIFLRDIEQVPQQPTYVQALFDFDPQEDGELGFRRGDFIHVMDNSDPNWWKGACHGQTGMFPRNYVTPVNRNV
For the compound `NC(=O)C[C@H](NC(=O)C1(NC(=O)CCc2ccc(CP(=O)(O)O)cc2)CCCCC1)C(=O)NCCCc1cccc2ccccc12`, the IC50 (usually the point on the concentration scale where inhibition reaches its midpoint) was 2000 nM.

Turning to `NC(=O)C[C@H](NC(=O)C1(NC(=O)[C@H](Cc2ccc(CP(=O)(O)O)cc2)NC(=O)C(=O)O)CCCCC1)C(=O)NCCCc1cccc2ccccc12`, the IC50 turned out to be 20 nM.

As for `CC(=O)N[C@@H](Cc1ccc(CP(=O)(O)O)cc1)C(=O)NC1(C(=O)N[C@@H](CC(N)=O)C(=O)NCCCc2cccc3ccccc23)CCCCC1`, the IC50 was found to be 55 nM. This IC50 is about 2.8-fold higher than that of the compound before.

`NC(=O)C[C@@H]1NC(=O)C2(CCCCC2)NC(=O)C[C@@H](c2ccc(CP(=O)(O)O)cc2)/C=C/C[C@@H](Cc2cccc3ccccc23)CNC1=O`: the IC50 was 20 nM. This IC50 is about 2.8-fold lower than that of the compound before.
